pIC50: −log10 of the molar value.
Key:
[1] = tested on: HSV-1 strain WT-51; experiment: HSV-1 skin infection mouse model (in vivo test); set-up: species or system HR-1 hairless mouse; conditions: for Lesion inhibitory ratio (%): oral twice a day for 5 days
Procedure: Using a cutaneous HSV-1 infection mouse model prepared in accordance with the method of H. Machida et al. (Antiviral Res., 1992, 17, 133-143), in vivo activity of the pharmaceutical composition of the present invention was tested. The skin of each HR-1 hairless mouse [female, 7 weeks of age] was scratched lengthwise and breadthwise several times using a needle and a virus suspension (HSV-1 strain WT-51, 1.5×10^4 PFU/15 μl) was dropped to the scarified region for infection, while anesthetized with diethyl ether.
Regarding the compounds to be tested, VCV was used as the polymerase inhibitor and made into a methyl cellulose suspension, the compound of Preparation 2, N-(4-methylphenyl)-N-(2-{[4-(1,3-oxazol-4-yl)phenyl]amino}-2-oxoethyl)tetrahydro-2H-thiopyran-4-carboxamide 1,1-dioxide, which is described later, was used as the helicase-primase inhibitor and made into a methyl cellulose suspension, and they were orally administered at the doses of the following table twice a day for 5 days starting after 3 hours of the infection. The symptom of the skin lesion caused by HSV-1 infection were classified in the following scores for 17 days:
Score 0: no signs of infection.
Score 1: localized, barely perceptible small vesicles.
Score 2: slight vesicle spread.
Score 3: large patches of vesicles formed.
Score 4: zosteriform vesicles.
Score 5: large patches of ulcers formed.
Score 6: zosteriform with severe large ulcers.
Score 7: hind limb paralysis or death.
The AUC value was calculated from each group's mean disease score, and the disease inhibitory rate of the group administered with each test compound to the placebo group was calculated using the AUC.
In the same manner as described in the above, VCV was used as the polymerase inhibitor and the compound of Preparation 27, N-(2,6-dimethylphenyl)-N-(2-{[4-(1,2,4-oxadiazol-3-yl)phenyl]amino}-2-oxoethyl)tetrahydro-2H-thiopyran-4-carboxamide 1,1-dioxide, which is described later, was used as the helicase-primase inhibitor, with the results shown in the following table.

[2] = biological target: T1, HSV-1 helicase-primase complex (Human herpesvirus 1, UniProt P10189+P10236); experiment: Helicase-primase inhibitory activity (DNA-dependent ATPase activity, Malachite Green); type: biochemical
T1 construct: made in house; host or cells: Baculovirus expression; The baculoviruses came from Dr. Nigel D. Stow (MRC, UK)
Procedure: Using an Baculoviruses for expressing respective proteins of UL5, UL52 and UL8 which constitute an HSV-1 helicase-primase complex (obtained from Dr. Nigel D. Stow, Medical Research Council, UK), a recombinant HSV-1 helicase-primase complex was prepared by the method described in a report of Crute et al. (J. B. C., 1991, Vol. 266, p. 21252-21256). Detection of DNA-dependent ATPase activity of the HSV-1 helicase-primase complex was carried out in reference to the method described in a report of Crute et al. (J. B. C., 1991, Vol. 266, p. 4484-4488). In brief, 520 ng of the HSV-1 helicase-primase complex was allowed to undergo the reaction at 30° C. for 30 minutes in a reaction liquid containing 20 μg/ml of heat-denatured bovine sperm DNA and 2 mM ATP, and then concentration of phosphoric acid formed through the hydrolysis of ATP into ADP and monophosphate by the activity of ATPase was determined by adding the same volume of Malachite Green reagent (0.03% Malachite Green, 0.1% ammonium molybdate, 4.8% sulfuric acid) and measuring the resulting absorbance at 650 nm. The 50% inhibition concentration (IC50 value) of each compound to be tested for HSV-1 helicase-primase DNA-dependent ATPase was calculated as the concentration which halves the phosphoric acid concentration at the time of not adding the compound.

T1 sequence (P10236 whole entry): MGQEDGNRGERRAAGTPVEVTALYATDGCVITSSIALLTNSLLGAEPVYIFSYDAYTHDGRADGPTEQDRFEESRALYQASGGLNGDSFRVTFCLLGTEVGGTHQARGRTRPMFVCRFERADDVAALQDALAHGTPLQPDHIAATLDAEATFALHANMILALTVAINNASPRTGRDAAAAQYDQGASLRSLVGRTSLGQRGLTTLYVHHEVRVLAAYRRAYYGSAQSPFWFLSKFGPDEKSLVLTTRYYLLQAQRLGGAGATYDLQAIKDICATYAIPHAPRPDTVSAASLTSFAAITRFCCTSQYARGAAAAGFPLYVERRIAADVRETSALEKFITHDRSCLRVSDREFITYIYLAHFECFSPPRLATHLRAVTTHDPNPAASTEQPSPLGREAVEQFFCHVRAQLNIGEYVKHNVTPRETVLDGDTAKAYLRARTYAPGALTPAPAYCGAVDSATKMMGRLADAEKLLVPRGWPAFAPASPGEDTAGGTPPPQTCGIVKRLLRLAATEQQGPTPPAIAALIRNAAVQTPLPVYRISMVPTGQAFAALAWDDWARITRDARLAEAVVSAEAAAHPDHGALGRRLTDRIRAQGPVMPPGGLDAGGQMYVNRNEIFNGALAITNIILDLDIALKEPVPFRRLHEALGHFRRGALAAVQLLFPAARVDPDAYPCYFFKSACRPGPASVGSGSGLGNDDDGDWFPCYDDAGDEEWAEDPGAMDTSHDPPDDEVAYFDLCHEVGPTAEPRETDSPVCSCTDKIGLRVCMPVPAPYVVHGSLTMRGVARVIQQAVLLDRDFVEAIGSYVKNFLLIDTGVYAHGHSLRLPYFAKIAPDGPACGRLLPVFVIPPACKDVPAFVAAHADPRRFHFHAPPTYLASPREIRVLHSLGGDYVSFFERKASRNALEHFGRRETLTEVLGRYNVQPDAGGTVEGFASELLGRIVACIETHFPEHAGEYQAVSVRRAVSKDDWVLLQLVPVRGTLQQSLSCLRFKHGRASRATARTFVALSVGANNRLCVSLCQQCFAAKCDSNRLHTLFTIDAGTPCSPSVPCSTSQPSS
T1 sequence (P10192 whole entry, further chain): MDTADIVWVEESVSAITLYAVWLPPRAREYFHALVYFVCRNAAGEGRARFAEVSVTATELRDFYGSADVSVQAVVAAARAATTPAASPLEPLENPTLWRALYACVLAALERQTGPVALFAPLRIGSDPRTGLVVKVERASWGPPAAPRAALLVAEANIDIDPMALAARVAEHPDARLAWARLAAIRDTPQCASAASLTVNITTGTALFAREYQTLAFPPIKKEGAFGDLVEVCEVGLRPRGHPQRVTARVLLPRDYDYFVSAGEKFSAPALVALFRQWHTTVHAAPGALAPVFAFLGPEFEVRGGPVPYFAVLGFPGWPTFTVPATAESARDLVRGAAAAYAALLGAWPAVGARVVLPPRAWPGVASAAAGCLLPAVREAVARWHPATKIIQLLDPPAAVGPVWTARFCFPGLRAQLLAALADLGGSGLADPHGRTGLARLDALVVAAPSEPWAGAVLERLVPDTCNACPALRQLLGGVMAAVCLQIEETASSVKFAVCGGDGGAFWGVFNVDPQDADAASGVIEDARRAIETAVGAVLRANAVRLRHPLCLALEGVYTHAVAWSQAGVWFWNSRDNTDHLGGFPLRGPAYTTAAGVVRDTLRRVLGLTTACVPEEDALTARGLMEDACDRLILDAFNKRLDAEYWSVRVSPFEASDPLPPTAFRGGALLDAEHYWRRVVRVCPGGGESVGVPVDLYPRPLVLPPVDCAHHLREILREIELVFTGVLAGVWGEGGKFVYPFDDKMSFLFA
T1 sequence (P10189 whole entry): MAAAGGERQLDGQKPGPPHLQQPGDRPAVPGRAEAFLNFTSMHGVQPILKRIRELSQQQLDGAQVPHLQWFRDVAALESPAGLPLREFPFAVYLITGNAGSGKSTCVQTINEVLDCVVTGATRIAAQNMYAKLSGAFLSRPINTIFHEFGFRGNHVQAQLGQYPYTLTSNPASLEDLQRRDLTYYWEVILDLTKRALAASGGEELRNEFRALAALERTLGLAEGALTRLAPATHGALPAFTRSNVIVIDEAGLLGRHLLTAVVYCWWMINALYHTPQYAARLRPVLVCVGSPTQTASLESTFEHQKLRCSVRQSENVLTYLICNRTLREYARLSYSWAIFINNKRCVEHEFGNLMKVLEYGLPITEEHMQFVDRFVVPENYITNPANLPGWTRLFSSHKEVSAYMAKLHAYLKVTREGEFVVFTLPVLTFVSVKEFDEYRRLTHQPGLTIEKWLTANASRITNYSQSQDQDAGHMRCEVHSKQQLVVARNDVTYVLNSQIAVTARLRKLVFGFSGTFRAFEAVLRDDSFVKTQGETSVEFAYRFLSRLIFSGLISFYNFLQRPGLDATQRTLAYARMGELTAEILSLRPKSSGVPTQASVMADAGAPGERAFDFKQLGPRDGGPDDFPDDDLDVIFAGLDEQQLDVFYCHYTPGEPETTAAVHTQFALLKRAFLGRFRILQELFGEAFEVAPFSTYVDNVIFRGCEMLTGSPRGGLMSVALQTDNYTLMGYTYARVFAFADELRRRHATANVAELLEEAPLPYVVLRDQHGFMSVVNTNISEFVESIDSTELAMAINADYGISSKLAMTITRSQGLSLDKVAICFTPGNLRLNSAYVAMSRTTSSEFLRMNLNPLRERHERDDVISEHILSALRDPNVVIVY

## Cc1ccc(N(CC(=O)Nc2ccc(-c3cocn3)cc2)C(=O)C2CCS(=O)(=O)CC2)cc1 [Preparation 2, N-(4-methylphenyl)-N-(2-{[4-(1,3-oxazol-4-yl)phenyl]amino}-2-oxoethyl)tetrahydro-2H-thiopyran-4-carboxamide 1,1-dioxide]
[1]; Table 2, compound of Preparation 2 1 mg/kg, VCV 0 mg/kg, AUC of disease score over 17 days vs placebo
  Lesion inhibitory ratio (%): 38%
[1]; Table 2, compound of Preparation 2 3 mg/kg, VCV 0 mg/kg
  Lesion inhibitory ratio (%): 52%
[1]; Table 2, concomitant use: VCV 10 mg/kg + compound of Preparation 2 1 mg/kg
  Lesion inhibitory ratio (%): 76%
[1]; Table 2, concomitant use: VCV 10 mg/kg + compound of Preparation 2 3 mg/kg
  Lesion inhibitory ratio (%): 83%
[1]; Table 2, concomitant use: VCV 30 mg/kg + compound of Preparation 2 1 mg/kg
  Lesion inhibitory ratio (%): 86%
[1]; Table 2, concomitant use: VCV 30 mg/kg + compound of Preparation 2 3 mg/kg
  Lesion inhibitory ratio (%): 91%
[1]; concomitant use group of VCV with the compound of Preparation 2, compared with VCV single administration
  lesion inhibitory activity (in words): good lesion inhibitory activity in comparison with the VCV single administration group
[1]; concomitant use of 30 mg/kg of VCV with 3 mg/kg of the compound of Preparation 2
  inhibition of the lesions (in words): almost completely inhibited the lesions
[2]
  pIC50: 7.08

## Cc1cccc(C)c1N(CC(=O)Nc1ccc(-c2ncon2)cc1)C(=O)C1CCS(=O)(=O)CC1 [Preparation 27, N-(2,6-dimethylphenyl)-N-(2-{[4-(1,2,4-oxadiazol-3-yl)phenyl]amino}-2-oxoethyl)tetrahydro-2H-thiopyran-4-carboxamide 1,1-dioxide]
[1]; Table 3, compound of Preparation 27 1 mg/kg, VCV 0 mg/kg
  Lesion inhibitory ratio (%): 33%
[1]; Table 3, compound of Preparation 27 3 mg/kg, VCV 0 mg/kg
  Lesion inhibitory ratio (%): 68%
[1]; Table 3, concomitant use: VCV 10 mg/kg + compound of Preparation 27 1 mg/kg
  Lesion inhibitory ratio (%): 66%
[1]; Table 3, concomitant use: VCV 10 mg/kg + compound of Preparation 27 3 mg/kg
  Lesion inhibitory ratio (%): 86%
[1]; Table 3, concomitant use: VCV 30 mg/kg + compound of Preparation 27 1 mg/kg
  Lesion inhibitory ratio (%): 88%
[1]; Table 3, concomitant use: VCV 30 mg/kg + compound of Preparation 27 3 mg/kg
  Lesion inhibitory ratio (%): 100%
[1]; concomitant use groups VCV 10 mg/kg + 3 mg/kg, VCV 30 mg/kg + 1 mg/kg, VCV 30 mg/kg + 3 mg/kg of the compound of Preparation 27, compared with VCV single administration
  lesion inhibitory activity (in words): good lesion inhibitory activity in comparison with the VCV single administration group
[1]; concomitant use of 30 mg/kg of VCV with 3 mg/kg of the compound of Preparation 27
  inhibition of the lesions (in words): completely inhibited the lesions
[2]
  pIC50: 6.96

## CC(C)[C@H](N)C(=O)OCCOCn1cnc2c(=O)[nH]c(N)nc21 [VCV, valacyclovir, reference compound]
[1]; Table 2, VCV 10 mg/kg alone
  Lesion inhibitory ratio (%): 45%
[1]; Table 2, VCV 30 mg/kg alone
  Lesion inhibitory ratio (%): 57%
[1]; Table 3, VCV 10 mg/kg alone
  Lesion inhibitory ratio (%): 42%
[1]; Table 3, VCV 30 mg/kg alone
  Lesion inhibitory ratio (%): 52%

Source: US20090042915A1, “PREVENTIVE OR THERAPEUTIC AGENT FOR HERPESVIRUS-RELEATED DISEASE” (ASTELLAS PHARMA INC., priority 2005, published 2009)
